Experimental data as given in patent US9457089B2, “Highly concentrated aqueous protein solution with reduced viscosity” (ADOCIA, priority 2012, dated 2016).
Counter-ions that a name gives are not always drawn.

Columns and labels:
bevacizumab = experiment: Viscosity reduction of highly concentrated bevacizumab solution (cone/plate rheometer); format: physicochemical; settings: bevacizumab 220 mg/ml, 150 mM agent
Source text: (§1) For this example, three solutions of monoclonal antibodies, i.e. a solution of bevacizumab (an IgG1 sold under the name Avastin® by Genentech/Hoffmann La Roche), a solution of infliximab (an IgG1/κ sold under the name Remicade® by Schering-Plough) and a solution of trastuzumab (an IgG1/κ sold under the name Herceptin® by Genentech), were concentrated by ultrafiltration on Amicon® Ultra-15 centrifuge filtration units with a cutoff threshold of 50 kDa. The protein concentration of each concentrated solution was measured by UV spectroscopy (absorbance at 280 nm) after dilution of the samples.
(§2) The commercial solution of bevacizumab (25 mg/ml) was concentrated to 268 mg/ml. […] Once reconstituted, the infliximab and trastuzumab formulations were concentrated to, respectively, 183 mg/ml and 243 mg/ml.
(§3) The effect of uridine compared with that of arginine and of NaCl on the viscosity of these three highly concentrated therapeutic protein solutions was then evaluated. For this, the viscosity was measured using a cone/plate rheometer (TA Instruments, AR 2000 Ex, geometry or diameter 20 mm, cone of 0.5131°, solvent trap filled with water) at a temperature of 21° C. and in flow sweep mode with shear rates of between 5000 and 50 s^−1 (3 points per decade-steady-state sensing). All the viscosity values are determined at the level of the Newtonian plateau.
(§4) For this example, the “Protein+Urid”, “Protein+Arg” and “Protein+NaCl” formulations were prepared by mixing one of the previously prepared undine, arginine or NaCl solutions, with Milli-Q® water and with one of the previously prepared concentrated protein solutions so as to achieve a final uridine, arginine or NaCl concentration of 150 mmol/l (mM) and a final protein concentration of 220 mg/ml for bevacizumab, 150 mg/ml for infliximab and 200 mg/ml for trastuzumab. The samples thus prepared were stored at ambient temperature and were analyzed using a rheometer within 24 hours of their preparation.
(§5) The “control” solutions are prepared by dilution in Milli-Q® water, so as to achieve a final protein concentration of 220 mg/ml for bevacizumab, 150 mg/ml for infliximab and 200 mg/ml for trastuzumab.
(§6) The pH of these formulations (“Protein+Urid”, “Protein+Arg” and “Protein+NaCl” and “controls”) is the same as that of the commercial formulation of the corresponding therapeutic protein (table II).
(§7) The results of the measurements relating to this second example are given in table III hereinafter in the form of percentages of viscosity reduction relative to the control solution of therapeutic protein alone, at the same protein concentration as the “Protein+Urid”, “Protein+Arg” or “Protein+NaCl” formulations.
(§8) In this study, the highly concentrated bevacizumab and infliximab solutions used are the same as those which were prepared and used previously. The “Protein+Cyt”, “Protein+Deoxycyt”, “Protein+Urid”, “Protein+Arg”, “Protein+NaCl” and “Protein+ATP” formulations were prepared in the presence of 150 mM of cytidine, of 2′-deoxycytidine, of uridine, of arginine, of NaCl or of sodium salt of adenosine 5′-triphosphate.
(§9) The viscosity of the “Protein+Cyt”, “Protein+Deoxycyt” and “Protein+Urid” formulations was then measured as described in example 2 and compared with that obtained for the “Protein+Arg”, “Protein+NaCl” and “Protein+ATP” formulations. The pH of these formulations is the same as that of the corresponding therapeutic protein formulation, i.e. 6.2±0.2 for bevacizumab and 7.2±0.2 for infliximab.
(§10) The results of the measurements relating to this example are given in tables IV and V hereinafter in the form of percentages of viscosity reduction relative to the control solution of therapeutic protein alone, at the same protein concentration as the “Protein+Cyt”, “Protein+Deoxycyt”, “Protein+Urid”, “Protein+Arg”, “Protein+NaCl” and “Protein+ATP” formulations.

infliximab = experiment: Viscosity reduction of highly concentrated infliximab solution (cone/plate rheometer); format: physicochemical; settings: for % viscosity reduction relative to the control infliximab solution: pH 7.2±0.2
Source text: as §1, §2, §3
The samples thus prepared were stored at ambient temperature and were analyzed using a rheometer within 24 hours of their preparation. […]
as §6, §7, §8, §9, §10
The highly concentrated infliximab solution used is the same as that which was prepared previously. The “Protein+Cyt” and “Protein+Arg” formulations were prepared in the presence of 150 mM of cytidine or of arginine and with infliximab concentrations decreasing from 150 mg/ml to 80 mg/ml.
The pH of these formulations is the same as that of the commercial infliximab formulation, i.e. 7.2±0.2. The viscosity of the formulations thus prepared was measured as described in example 2.
The results of the measurements relating to this example are given in table VI hereinafter in the form of percentages of viscosity reduction relative to the control Infliximab solution.
The highly concentrated infliximab solution used is the same as that which was prepared and used previously. […]

trastuzumab = experiment: Viscosity reduction of highly concentrated trastuzumab solution (cone/plate rheometer); format: physicochemical; settings: trastuzumab 200 mg/ml, 150 mM agent, pH 6.0±0.2, 21° C. (Table III)
Source text: as §1, §2, §3, §4, §5, §6, §7

[1] = cited from earlier work
[2] = Infliximab 105 mg/ml, 50 mM agent, pH 7.2
[3] = Infliximab 105 mg/ml, 150 mM agent, pH 7.2 (Table VII)
[4] = Infliximab 105 mg/ml, 300 mM agent, pH 7.2
[5] = infliximab 80 mg/ml, 150 mM agent
[6] = infliximab 105 mg/ml, 150 mM agent
[7] = infliximab 125 mg/ml, 150 mM agent
[8] = infliximab 140 mg/ml, 150 mM agent
[9] = infliximab 150 mg/ml, 150 mM agent
[10] = infliximab 150 mg/ml, 150 mM agent, pH 7.2±0.2 (Table V)
[11] = infliximab 150 mg/ml, 150 mM agent, pH 7.2±0.2, 21° C. (Table III)

Row | SMILES | % viscosity reduction relative to the “protein alone” control (bevacizumab; pH 6.2±0.2 (Table IV)) | % viscosity reduction relative to the “protein alone” control (infliximab; [2]) | % viscosity reduction relative to the “protein alone” control (infliximab; [3]) | % viscosity reduction relative to the “protein alone” control (infliximab; [4]) | % viscosity reduction relative to the “protein alone” control (infliximab; [10]) | % viscosity reduction relative to the “protein alone” control (bevacizumab; pH 6.2±0.2, 21° C. (Table III)) | % viscosity reduction relative to the “protein alone” control (infliximab; [11]) | % viscosity reduction relative to the “protein alone” control (trastuzumab) | also measured
1 | Nc1ccn([C@@H]2O[C@H](CO)[C@@H](O)[C@H]2O)c(=O)n1 [Cyt, Cytidine] | 43% | 39% | 68% | 72% | 76% | – | – | – | % viscosity reduction relative to the control infliximab solution (infliximab; [5]): 58%; % viscosity reduction relative to the control infliximab solution (infliximab; [6]): 68%; % viscosity reduction relative to the control infliximab solution (infliximab; [7]): 69%; % viscosity reduction relative to the control infliximab solution (infliximab; [8]): 77%; % viscosity reduction relative to the control infliximab solution (infliximab; [9]): 76%
2 | Cl.N=C(N)NCCC[C@H](N)C(=O)O [Arg, L-arginine hydrochloride salt] | 46% | 32% | 46% | 58% | 55% | 46% | 55% | 48% | % viscosity reduction relative to the control infliximab solution (infliximab; [5]): 36%; % viscosity reduction relative to the control infliximab solution (infliximab; [6]): 47%; % viscosity reduction relative to the control infliximab solution (infliximab; [7]): 46%; % viscosity reduction relative to the control infliximab solution (infliximab; [8]): 59%; % viscosity reduction relative to the control infliximab solution (infliximab; [9]): 55%
3 | Nc1ccn([C@H]2C[C@H](O)[C@@H](CO)O2)c(=O)n1 [Deoxycyt, 2′-Deoxycytidine] | 51% | – | – | – | 75% | – | – | – | –
4 | O=c1ccn([C@@H]2O[C@H](CO)[C@@H](O)[C@H]2O)c(=O)[nH]1 [Urid, Uridine] | 64% | – | – | – | 70% | 64% | 70% | 35% | % viscosity reduction relative to the “protein alone” control (bevacizumab; pH 6.2±0.2, 21° C. (Table III), listed as uridine): 64%; % viscosity reduction relative to the “protein alone” control (infliximab; infliximab 150 mg/ml, 150 mM agent, pH 7.2±0.2, 21° C. (Table III), listed as uridine): 70%; % viscosity reduction relative to the “protein alone” control (trastuzumab; listed as uridine): 35%
5 | Nc1ncnc2c1ncn2[C@@H]1O[C@H](COP(=O)(O)OP(=O)(O)OP(=O)(O)O)C(O)C1O (stereo partly drawn) [ATP, Sodium salt of adenosine 5′-triphosphate] | −14% | – | – | – | 0% | – | – | – | effect on the viscosity of bevacizumab (in words) (bevacizumab): does not make it possible to reduce the viscosity; increase of the viscosity of bevacizumab (bevacizumab): 14%; effect on the viscosity of bevacizumab (in words) (bevacizumab; listed as sodium salt of adenosine 5′-triphosphate): does not make it possible, a fortiori, to reduce the viscosity; effect on the viscosity of infliximab (in words) (infliximab; [9]): does not make it possible to reduce the viscosity
6 | [Cl-].[Na+] [NaCl, Sodium chloride] | 24% | 20% | −6% | −90% | 6% | 24% | 6% | 34% | –
7 | Nc1nc2c(ncn2[C@@H]2O[C@H](CO)[C@@H](O)[C@H]2O)c(=O)[nH]1 [guanosine] | – | – | – | – | – | – | – | – | solubility (in words) [1]: very poor solubility
